Experimental data published in article PMC6272171 (2015).

What was measured:
[1] = test system: c-myc (DNA, G4) TGAGGGTGGGGAGGGTGGGGAA; assay: UV-Vis titration, Scatchard; settings: 100 mM KCl; 50 mM Tris-HCl pH 7.4, 25 °C
[2] = test system: dsDNA (DNA, duplex) GGGAGGTTTCGC/GCGAAACCTCCC; assay: UV-Vis titration, Scatchard; settings: 100 mM KCl; 50 mM Tris-HCl pH 7.4, 25 °C; 0.60 ± 0.08 in 100 mM NaCl
[3] = test system: c-kit (DNA, G4) AGGGAGGGCGCTGGGAGGAGGAGGG; assay: UV-Vis titration, Scatchard; settings: 100 mM KCl; 50 mM Tris-HCl pH 7.4, 25 °C
[4] = test system: a-coreTT (DNA, G4) AGGGTTAGGGTTAGGGTTAGGGTT; assay: UV-Vis titration, Scatchard; settings: 100 mM KCl; 50 mM Tris-HCl pH 7.4, 25 °C
[5] = test system: a-core (DNA, G4) AGGGTTAGGGTTAGGGTTAGGG; assay: UV-Vis titration, Scatchard; settings: 50 mM Tris-HCl pH 7.4, 25 °C
[6] = test system: TBA (DNA, G4) GGTTGGTGTGGTTGG; assay: UV-Vis titration, Scatchard; settings: 100 mM KCl; 50 mM Tris-HCl pH 7.4, 25 °C
[7] = test system: dsDNA (DNA, duplex) GGGAGGTTTCGC/GCGAAACCTCCC; assay: UV melting, 260 nm; settings: 100 mM KCl, 50 mM Tris-HCl pH 7.4, same value in NaCl
[8] = test system: a-core (DNA, G4) AGGGTTAGGGTTAGGGTTAGGG; assay: CD melting, 290 nm; settings: 50 mM Tris-HCl pH 7.4, 3.0 µM compound, 1.5 µM DNA
[9] = test system: a-coreTT (DNA, G4) AGGGTTAGGGTTAGGGTTAGGGTT; assay: CD melting, 290 nm; settings: 100 mM KCl; 50 mM Tris-HCl pH 7.4; 3.0 µM compound, 1.5 µM DNA
[10] = test system: c-myc (DNA, G4) TGAGGGTGGGGAGGGTGGGGAA; assay: CD melting, 262 nm; settings: 5 mM KCl; 50 mM Tris-HCl pH 7.4; 3.0 µM compound, 1.5 µM DNA
[11] = test system: F21T (DNA, G4) GGGTTAGGGTTAGGGTTAGGG; assay: FRET melting; settings: 150 mM KCl; 100 mM Tris-HCl pH 7.4; 0.4 µM compound, 0.2 µM F21T
[12] = test system: TBA (DNA, G4) GGTTGGTGTGGTTGG; assay: CD melting, 290 nm; settings: 100 mM KCl; 50 mM Tris-HCl pH 7.4; 3.0 µM compound, 1.5 µM DNA
[13] = test system: c-kit (DNA, G4) AGGGAGGGCGCTGGGAGGAGGAGGG; assay: CD melting, 262 nm; settings: 20 mM KCl; 50 mM Tris-HCl pH 7.4; 3.0 µM compound, 1.5 µM DNA

K [1] | K [2] | K [3] | K [4] | K ([5]; 100 mM KCl) | K ([5]; 100 mM NaCl) | K [6] | ∆Tm ([7]; 2:1 ligand:DNA) | ∆Tm ([8]; 100 mM KCl) | ∆Tm ([8]; 100 mM NaCl) | ∆Tm [9] | ∆Tm [10] | Tm increase [11] | ∆Tm [12] | ∆Tm [13] | ∆Tm ([7]; 2:1 ligand:DNA in table (text: 1-fold)) | Structure (SMILES)
1.5 ± 0.2 × 10^6 M^-1 | 0.60 ± 0.04 × 10^6 M^-1 | 0.74 ± 0.05 × 10^6 M^-1 | 1.9 ± 0.3 × 10^6 M^-1 | 1.6 ± 0.2 × 10^6 M^-1 | 0.73 ± 0.09 × 10^6 M^-1 | 0.49 ± 0.04 × 10^6 M^-1 | 12 °C | 5 °C | 1 °C | – | – | – | – | – | – | CN(C)CCCN1C(=O)c2ccc3c4c(ccc(c24)C1=O)C(=O)N(CCCN(C)C)C3=O
4.0 ± 0.3 × 10^6 M^-1 | – | 1.9 ± 0.18 × 10^6 M^-1 | 6.1 ± 0.4 × 10^6 M^-1 | 10 ± 0.5 × 10^6 M^-1 | 1.0 ± 0.04 × 10^6 M^-1 | 3.5 ± 0.2 × 10^6 M^-1 | – | 15 °C | – | 18 °C | 15 °C | 11 °C | 11 °C | 11 °C | 0.3 °C | CN1CCCNC(=O)c2ccc(cc2)C(=O)NCCCN(C)CCCN2C(=O)c3ccc4c5c(ccc(c35)C2=O)C(=O)N(CCC1)C4=O
